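Grown in 96-well plates, cells were treated for 48 hours with each compound at five concentrations. Insufficient inhibition: endpoint recorded as highest concentration tested. The concentration for 50% growth inhibition is given as GI50.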 Activity calls are given as the source filed them. Rule as the data show it: active = GI50 up to about 1.1 µM and inactive = higher.
What was measured:
Experiment in all cases: growth of human tumour cells (NCI), 48 h
HCC 2998 = test system: HCC 2998
SK-OV-3 = test system: SK-OV-3
SN12C = test system: SN12C
UACC-257 = test system: UACC-257
PC-3 = test system: PC-3
HOP-92 = test system: HOP-92
IGROV-1 = test system: IGROV-1
SK-MEL-5 = test system: SK-MEL-5
SF-295 = test system: SF-295
786-0 = test system: 786-0
Hs-578T = test system: Hs-578T
EKVX = test system: EKVX
SNB-19 = test system: SNB-19
UO-31 = test system: UO-31
NCI/ADR-RES = test system: NCI/ADR-RES
HT-29 = test system: HT-29
Malme-3M = test system: Malme-3M
CCRF-CEM = test system: CCRF-CEM
MDA-MB-231 = test system: MDA-MB-231

SMILES | GI50 (HCC 2998) | GI50 (SK-OV-3) | GI50 (SN12C) | GI50 (UACC-257) | GI50 (PC-3) | GI50 (HOP-92) | GI50 (IGROV-1) | GI50 (SK-MEL-5) | GI50 (SF-295) | GI50 (786-0) | GI50 (Hs-578T) | GI50 (EKVX) | GI50 (SNB-19) | GI50 (UO-31) | GI50 (NCI/ADR-RES) | GI50 (HT-29) | GI50 (Malme-3M) | GI50 (CCRF-CEM) | GI50 (MDA-MB-231)
CC[C@H]1C=CCC[C@@]2(C[C@@H]3CC[C@H]4[C@H](C(=O)OCCCCCCCCCCCCCCCC(=O)N(CCCN)C[C@@H](O)CCN)[C@]5(CCC[C@@H](C)O5)NC(=[N+]34)N2)O1 | 0.575 µM (active) | 1.65 µM (inactive) | 0.776 µM (active) | 0.604 µM (active) | 0.7 µM (active) | 0.318 µM (active) | 0.615 µM (active) | 0.268 µM (active) | 1.63 µM (inactive) | 0.543 µM (active) | 1.59 µM (inactive) | 1.08 µM (active) | 1.21 µM (inactive) | 0.471 µM (active) | 1.63 µM (inactive) | 0.387 µM (active) | 0.196 µM (active) |  | 
CN(C)CCNC(=O)c1ccc2nc3c(nc2c1)C(=O)c1ccccc1-3 | 86.9 µM (inactive) | > 100 µM (inactive) | 68.5 µM (inactive) | 76.6 µM (inactive) | 45 µM (inactive) | 57.4 µM (inactive) | 38.9 µM (inactive) | 17.9 µM (inactive) | 65.6 µM (inactive) | 31.8 µM (inactive) | 52.2 µM (inactive) | > 100 µM (inactive) | 77.3 µM (inactive) | 40.6 µM (inactive) |  | 26.4 µM (inactive) | 25.2 µM (inactive) | 9.75 µM (inactive) | 
N=C(N)C1CN(CCc2c[nH]cn2)C(=O)NC1=O (stereo not drawn) | > 100 µM (inactive) | > 100 µM (inactive) | > 100 µM (inactive) | > 100 µM (inactive) | > 100 µM (inactive) | > 100 µM (inactive) | > 100 µM (inactive) | > 100 µM (inactive) | > 100 µM (inactive) | > 100 µM (inactive) | > 100 µM (inactive) | > 100 µM (inactive) | > 100 µM (inactive) | > 100 µM (inactive) |  | > 100 µM (inactive) | 36 µM (inactive) | > 100 µM (inactive) | 
COc1cccc(/C=C2\CCCc3ccccc3C2=O)c1 |  | 30.5 µM (inactive) | 16.1 µM (inactive) | 15.2 µM (inactive) | 16.2 µM (inactive) | 13.4 µM (inactive) | 17.9 µM (inactive) |  | 14.9 µM (inactive) | 13.1 µM (inactive) | 17.9 µM (inactive) | 21.3 µM (inactive) | 11.7 µM (inactive) | 15.1 µM (inactive) | 17.9 µM (inactive) | 17.1 µM (inactive) | 19.6 µM (inactive) | 12.3 µM (inactive) | 13.8 µM (inactive)
CCCCOC(=O)NC(=O)c1cn(CCCOC(=O)CCCCCCCCC(=O)OCCCn2cc(C(=O)NC(=O)OCCCC)c(=O)[nH]c2=O)c(=O)[nH]c1=O | > 100 µM (inactive) | > 100 µM (inactive) | > 100 µM (inactive) | > 100 µM (inactive) |  | > 100 µM (inactive) | > 100 µM (inactive) | > 100 µM (inactive) | > 100 µM (inactive) | > 100 µM (inactive) |  | > 100 µM (inactive) | > 100 µM (inactive) | > 100 µM (inactive) |  | > 100 µM (inactive) | > 100 µM (inactive) | > 100 µM (inactive) | 
Cc1cc(Cl)ccc1NC(=O)CCCC(=O)C1C/C(=N/O)CC/C1=N\O (stereo not drawn) | > 100 µM (inactive) | > 100 µM (inactive) | > 100 µM (inactive) | > 100 µM (inactive) |  | > 100 µM (inactive) | > 100 µM (inactive) | > 100 µM (inactive) | > 100 µM (inactive) | > 100 µM (inactive) |  | > 100 µM (inactive) | > 100 µM (inactive) | > 100 µM (inactive) |  | > 100 µM (inactive) | > 100 µM (inactive) | > 100 µM (inactive) | 

Reference: ChEMBL document CHEMBL1201862, “PubChem BioAssay data set” (2004)
